Measurements: PubChem BioAssay AID179 (DTP/NCI, 2004)
Activity calls are given as the source filed them.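 The calls were made as follows: active = compounds giving half or more protection of infected cells from virus-caused growth loss, again on retest; inactive = the rest.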

Test system: CEM cells HIV-1 protection, formazan growth assay
Assay: NCI AIDS Antiviral Assay
Details: for IC50: measured here: growth of uninfected CEM cells
How it was run: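 Human CEM cells, uninfected and HIV-1-infected, exposed to five drug concentrations; growth measured by soluble formazan assay and scored as percent protection from infection, with protecting compounds retested.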

SMILES | EC50 [µM] | IC50 [µM] | outcome
COC(=O)C(NC(=O)c1ccccc1)C(c1ccc(Cl)cc1)P(=O)(OC)OC (centres undefined) | > 309 | > 309 | –
CC1CC2Oc3ccc(Cl)cc3C(=O)N2O1 (centres undefined) | > 200 | > 200 | –
CC(=O)OCC1OC(n2c(-c3cccs3)c3c(c(C#N)c2=S)-c2ccccc2CC3)C(OC(C)=O)C(OC(C)=O)C1OC(C)=O (centres undefined) | – | – | inactive
COc1ccc(C(=O)CC2(O)C(=O)N(CN3CCOCC3)c3ccc(Br)cc32)cc1 (centres undefined) | > 123 | 105 | –
COc1cc(C2c3c(ccc4ccccc34)C(=O)C3CCC(=O)N32)cc(OC)c1OC (centres undefined) | > 50.1 | 18.2 | –
COc1ccc2c(C)c(CNc3ccccc3)c(=O)oc2c1OC | > 11 | > 11 | –
NC1(C(=O)O)CCCC1 | > 724 | > 724 | –
CCOCNC=O | > 2400 | 1480 | –
Cn1c(-c2cccs2)cc(-c2cccs2)c1-c1ccsc1 | > 20 | 11.2 | –
O=C(CCc1ccc(O)c(O)c1)NCCc1cc(O)cc(O)c1 | – | – | inactive
CC(C)(C)C(O)CC(O)(C(F)(F)F)C(F)(F)F (centres undefined) | > 200 | > 200 | –
Cc1nnc(NC(=O)c2cc(=O)c3ccccc3o2)s1 | > 91.2 | > 91.2 | –
Cc1ccc(C(=O)C2=CN=C3C(=O)N(c4ccccc4)N(C)C3(C)C2=N)cc1 (centres undefined) | > 200 | > 200 | –
CC(C)=CCC/C(C)=C/CCC1(C)C=Cc2c(c3ccccc3oc2=O)O1 (centres undefined) | – | – | inactive
NC(CSSCC(N)C(=O)c1ccccc1)C(=O)c1ccccc1 (centres undefined) | > 200 | 9.77 | –
O=C1NC(=O)[C@@]2(CCOc3ccc(F)cc32)N1 | > 741 | 661 | –
O=[N+]([O-])/C(C(Cl)=C(Cl)Cl)=C(/Sc1ccccc1)N1CCOCC1 | > 200 | 2.63 | –
O=S1Nc2cccc(C(F)(F)F)c2S1 (centres undefined) | > 57.5 | > 57.5 | –
CC1(C)c2ccccc2N2C(c3ccccc3)=NOC21C (centres undefined) | > 25.7 | > 25.7 | –
Clc1cc(Cl)cc(C2ON=C(c3ccccc3)N2C23CC4CC(CC(C4)C2)C3)c1 (centres undefined) | > 200 | > 200 | –
N#CCC(=O)N/N=C(/C(=O)Nc1ccccc1)C1C(=O)N(c2ccccc2)N=C1N (centres undefined) | > 170 | > 170 | –
O=C1/C(=C2\Sc3c(ccc(Cl)c3Cl)C2=O)Sc2c1ccc(Cl)c2Cl | > 200 | > 200 | –
CN(C)CCOc1cccc2c1C(=O)c1ccccc1C2=O | – | – | inactive

SMILES | EC50 [µM] | IC50 [µM] | outcome
CC1CCCCC12C(C#N)(C#N)C2(C#N)C#N (centres undefined) | > 20 | 9.55 | –
COc1cc(-c2oc(C=Nc3ccccc3)c([N+](=O)[O-])c2-c2ccc(O)c(OC)c2)ccc1O | > 200 | 7.59 | –
Cc1nc2c(nc1C)C(=O)C(Cl)=CC2=O | – | – | inactive
COc1ccc(N=Nc2c(C)c(C#N)c(=S)n(C3OC(CO)C(O)C(O)C3O)c2-c2ccccc2)cc1 (centres undefined) | > 200 | 28.2 | –
COc1cc2c(cc1OC)C(Cc1ccccc1CCCl)=NCC2 | > 200 | 29.5 | –
CCNC(=O)OCc1cnc(C)c(OC(=O)NCC)c1COC(=O)NCC | > 200 | 31.6 | –
CC1(C)C(=O)/C=C\C(=O)C(C)(C)C(=O)/C=C\C(=O)C(C)(C)C2=CC=C(O2)C(C)(C)C(=O)/C=C\C1=O | – | – | inactive
c1ccc2c(c1)SCC1COCOC21 (centres undefined) | > 631 | 617 | –
CC1CC(c2ccc([N+](=O)[O-])cc2)=Nc2ccccc2S1=O (centres undefined) | > 12 | > 12 | –
Cc1noc(C)c1-c1onc2ccc(Cl)cc12 | > 28.8 | > 28.8 | –
O=C(CCCC[n+]1ccccc1)Sc1ccccc1C(=O)Nc1ccc(S(=O)(=O)Nc2cnc3ccccc3n2)cc1 | 12.3 | 19.1 | –
CCCCCCCCCCCCOC1C(COCCN2CCCC2)OC2OC(C)(C)OC21 (centres undefined) | > 200 | 3.02 | –
CC1(O)c2ccccc2CCc2ccccc21 | > 32.4 | > 32.4 | –
COC(=O)c1cc(C(=CCCCC=O)c2cc(Cl)c(OC)c(C(=O)OC)c2)cc(Cl)c1OC | > 200 | 11.5 | –
CSc1nc(Br)nc2ncn(C3CC(Oc4ccc(C)cc4)C(COc4ccc(C)cc4)O3)c12 (centres undefined) | > 200 | 44.7 | –
Cc1c2ccccc2nc(CSc2ccccc2N)[n+]1[O-] | 64.6 | > 200 | –
NC(=O)N=C(N(Cc1ccccc1)Cc1ccccc1)N(Cc1ccccc1)Cc1ccccc1 | > 7.59 | 2.24 | –
CCC1=C(C(C)=O)[C@@H]2CCCCC[C@@H](C(=O)OC)C2C1=O (some centres undefined) | 191 | > 200 | –
CN(C)CCCNC(=O)c1nc(NC(=O)c2nc(NC(=O)c3nc(NC(=O)/C=C/C(=O)Nc4cn(C)c(C(=O)Nc5cn(C)c(C(=O)Nc6cn(C)c(C(=O)NCCCN(C)C)n6)n5)n4)cn3C)cn2C)cn1C | > 50.1 | > 50.1 | –
C=CC1(c2ccc(Br)cc2)OCCCO1 | > 200 | > 200 | –
O=C1/C(=C\c2ccccc2O)Cc2ccccc21 | > 148 | 28.2 | –
CCOP(=O)(OCC)C(c1ccc(F)cc1)N(C(=O)NC(F)(F)F)c1cccc(C(F)(F)F)c1 (centres undefined) | > 200 | 145 | –
Cc1ccc(S(=NS(=O)(=O)c2ccc(C)cc2)c2ccc(C)cc2)cc1 | > 49 | > 49 | –

SMILES | EC50 [µM] | IC50 [µM] | outcome
CN(C)CC(O)CNC(=O)Nc1ccccc1 (centres undefined) | > 200 | > 200 | –
CN1CN(c2ccccc2)C2(CCN(CCCC3(c4cccs4)OCCO3)CC2)C1=O | > 200 | 107 | –
COc1ccc(CN2CCCN(Cc3ccc(OC)cc3)S2)cc1 | > 75.9 | 31.6 | –
C[N+]12CC3C4CC(C3C1)C2C4 (centres undefined) | > 912 | > 912 | –
CC(=O)[CH-]C(C)=O.CC(=O)[CH-]C(C)=O.[CH2-]CCC.[CH2-]CCC.[Sn+4] | > 60.3 | 0.661 | –
CCCCCCCCCCCCCCCC1(OC)C[N+](C)(C)CCO1 (centres undefined) | > 200 | 1 | –
CC(C)C(OC(=O)c1ccc(NCC2=CC(=O)C=CC2=O)cc1)C(C)C | > 20 | 9.12 | –
CCCc1cc(=O)oc2c3c(cc(OC)c12)O[C@H](C)C(C)C3=O (some centres undefined) | > 200 | 58.9 | –
O=C1CNC(=O)c2ncn(C3OC(CO)C(O)C3O)c2N1 (centres undefined) | > 240 | > 240 | –
COC(=O)c1cc(CC2Cc3cc4c(cc3C2=O)CCC4)cc2c1CCC2 (centres undefined) | 33.1 | > 200 | –
C/C(=N/NC(=S)Nc1cccc(C)c1)c1ccccn1 | > 0.2 | 0.0955 | –
Cc1sc2nc3n(c(=O)c2c1C)N=C(c1ccccc1)CS3 | > 200 | > 200 | –
C=C(C)c1ccc2c(c1)C(=O)C[C@@H]1[C@](C)(C#N)CCC[C@]21C | > 200 | 44.7 | –
COc1ccc(Nc2nc3c(s2)c(C)c(O)c2ccccc23)cc1 | > 2.88 | 0.851 | –
Cc1cc2oc(=N)c(C#N)c(C)c2cc1C | > 200 | 43.7 | –
Cc1ccc(C2[C@H]3C(=O)N(c4ccc(Cc5ccc(N6C(=O)[C@@H]7ON(c8ccccc8)C(c8ccc(C)cc8)[C@@H]7C6=O)cc5)cc4)C(=O)[C@H]3ON2c2ccccc2)cc1 (some centres undefined) | > 6.76 | > 6.76 | –
N#Cc1c(NC(=O)CN2CCOCC2)c(C(=O)Nc2ccccc2)n2c1CCCC2 | > 200 | > 200 | –
CCC(=O)N/S(=N/S(=O)(=O)c1ccccc1)C(Cl)(Cl)Cl (centres undefined) | > 200 | > 200 | –
O=CCCn1[nH]c(=O)ccc1=O | > 1480 | 1410 | –
COc1ccc(OCC(=O)O)c(C(=O)CCC(=O)O)c1 | – | – | inactive
COC(=O)[C@@H]1CCCN1CCN1CCC[C@H]1C(=O)OC | > 200 | > 200 | –
COc1c(Br)cc(/C=C(\C#N)c2ccccn2)cc1Br | > 100 | > 100 | –
CC1(CO)OC(n2cnc3c(N)ncnc32)C(O)C1O (centres undefined) | > 891 | > 891 | –

SMILES | EC50 [µM] | IC50 [µM] | outcome
COc1ccc(N=Nc2cc(OC)c(N=Nc3c(O)c4ccccc4[nH]c3=O)cc2OC)cc1 | > 100 | 15.5 | –
CC(CC(=O)c1ccccc1)C(Sc1ccccc1)(Sc1ccccc1)Sc1ccccc1 (centres undefined) | > 200 | > 100 | –
CC(C)(C)OC(=O)N1CCC(NC(=O)NC2CCN(C(=O)OC(C)(C)C)CC2)CC1 | > 200 | > 200 | –
CN1C/C(=C\c2cccs2)c2[nH]c(=O)c(C#N)c(-c3cccs3)c2C1 | > 200 | > 200 | –
C/C(CC(=O)CCC(=O)Nc1cccc(C(F)(F)F)c1)=N\NC(=O)NN | > 10 | > 10 | –
NC(=O)c1ncn(CC2(COC(=O)c3ccccc3)CCC2)n1 | > 200 | > 200 | –
CC[P+](C#Cc1ccccc1)(c1ccccc1)c1ccccc1 | > 20 | 0.49 | –
COc1ccccc1Cn1nc(OC)c2cc([N+](=O)[O-])ccc21 | > 151 | > 151 | –
CCCCNC1CCC2(SCCS2)c2[nH]c3ccccc3c21 (centres undefined) | > 200 | 1.26 | –
On1c(-c2ccccc2)nc2ccccc2c1=S | > 200 | 1.45 | –
CCc1cccc(C)c1NC(=O)CCc1nnc2s/c(=C\c3cccc4ccccc34)c(=O)n12 | > 200 | 191 | –
Cc1ccc2nc(NS(=O)(=O)c3cc(C)c(Cl)cc3S)[nH]c2c1 | > 200 | > 200 | –
O=C1OCOC2(CCCC2)C1c1ccccc1 (centres undefined) | > 200 | 120 | –
O=c1c2ccccc2nc(-c2ccc(Br)cc2)n1NC1OC(CO)C(O)C(O)C1O (centres undefined) | – | – | inactive
COc1cc(C(=O)C/C(CCC(=O)Nc2ccccc2[N+](=O)[O-])=N\NC(=O)C(N)=O)ccc1O | > 145 | > 145 | –
C/C(CC1C2CCCC1C2)=N\NC(N)=O (centres undefined) | > 100 | > 100 | –
COc1cc(/C=N\NS(=O)(=O)c2ccc([N+](=O)[O-])cc2)c([N+](=O)[O-])cc1OC | > 33.1 | > 33.1 | –
CCOC(=O)C(NC(=O)CC(C)C)(NC(C)C)C(F)(F)F (centres undefined) | > 200 | > 200 | –
O=C(N/N=C/c1cc(Cl)cc(Cl)c1[OH2+])c1ccncc1.O=S(=O)([O-])[O-].[Fe+2] | – | – | inactive
COc1ccc2c3c1OC1CC(O)C=CC31CCN(C)C2 (centres undefined) | > 200 | > 200 | –
